The results in this text go back to patent US8629102B2, “3-hydroxyisothiazole 1-oxide derivatives” (Mochida Pharmaceutical Co., Ltd., priority 2011, dated 2014).

The target in this assay is T1, GPR40 of human origin (Homo sapiens, UniProt O14842).
T1 construct: expressed in transfected cells
T1 sequence (O14842 whole entry): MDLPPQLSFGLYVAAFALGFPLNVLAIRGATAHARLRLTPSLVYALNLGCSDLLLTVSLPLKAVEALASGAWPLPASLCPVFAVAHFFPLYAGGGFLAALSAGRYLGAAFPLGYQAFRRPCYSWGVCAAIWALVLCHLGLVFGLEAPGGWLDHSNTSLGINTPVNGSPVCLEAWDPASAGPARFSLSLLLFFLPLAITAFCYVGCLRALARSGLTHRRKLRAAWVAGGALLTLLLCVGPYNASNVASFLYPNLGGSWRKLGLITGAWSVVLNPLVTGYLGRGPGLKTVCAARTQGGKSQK
Nature of the assay: Agonist action on GPR40 of human origin (intracellular Ca2+ change). In kind it is cell-based. The settings on record: CHO cell strain stably expressing GPR40 of human origin; change in Ca2+ concentration, fluorescent calcium indicator. On the procedure: Pharmacological Test Example 1: Agonist Action on GPR40 of Human Origin
A CHO cell strain stably expressing GPR40 of human origin was used to determine the agonist action of a subject compound. This cell strain was seeded in a clear bottom 96 well plate at 4×10^4 cells/100 pt/well. The cell strain iswas cultured in a CO2 incubator overnight using a Ham's F-12 medium containing a 10% fetal bovine serum, 100 U/mL penicillin, 0.1 mg/mL streptomycin, and 400 μg/mL Geneticin. Calcium 4 Assay Kit (Molecular Devices) was used as a fluorescent calcium indicator. One mL of 77 mg/mL probenecid (Invitrogen) was added to 100 mL of a calcium indicator solution to prepare a solution (loading solution) mixed with a 20 mM HEPES-containing Hanks' balanced salt solution (HBSS) in equal proportions. To the cells from which the culture solution is removed, 200 μl of the loading solution was added, and the cells were cultured in a CO2 incubator for 1 hour. The subject compound was diluted with a 20 mM HEPES-containing HBSS and was added to the cells by 50 μL, and the change in the Ca^2+ concentration was measured with an intracellular ion analyzer. The EC50 value of the subject compound was calculated using the dose-response curve of fluorescence intensity variation.
In the case of `COc1cc(Cl)cc(-c2cccc3c2CC[C@H]3Oc2ccc(-c3cc(O)n[s+]3[O-])cc2)c1` (stereo partly drawn) [Example 14, 5-(4-(((R)-4-(3-chloro-5-methoxyphenyl)-2,3-dihydro-1H-inden-1-yl)oxy)phenyl)-3-hydroxyisothiazole 1-oxide], the EC50 was less than 300 nM.

For `[O-][s+]1nc(O)cc1-c1ccc(O[C@@H]2CCc3c(-c4ccc(Cl)cc4F)cccc32)cc1` (stereo partly drawn) [Example 16, 5-(4-(((R)-4-(4-chloro-2-fluorophenyl)-2,3-dihydro-1H-inden-1-yl)oxy)phenyl)-3-hydroxyisothiazole 1-oxide], the 50% effective concentration (EC50) was in the range of 300 to 3000 nM.

As to `[O-][s+]1nc(O)cc1-c1ccc(O[C@@H]2CCc3c(-c4cccc(F)c4F)cccc32)cc1` (stereo partly drawn) [Example 17, 5-(4-(((R)-4-(2,3-difluorophenyl)-2,3-dihydro-1H-inden-1-yl)oxy)phenyl)-3-hydroxyisothiazole 1-oxide], the concentration for a half-maximal effect (EC50) was less than 300 nM.

Consider `CCOc1cc(Cl)ccc1-c1cccc2c1CC[C@H]2Oc1ccc(-c2cc(O)n[s+]2[O-])cc1` (stereo partly drawn) [Example 18, 5-(4-(((R)-4-(4-chloro-2-ethoxyphenyl)-2,3-dihydro-1H-inden-1-yl)oxy)phenyl)-3-hydroxyisothiazole 1-oxide], for which the concentration for a half-maximal effect (EC50) was 300 to 3000 nM.

As for `CCOc1ncccc1-c1cccc2c1CC[C@H]2Oc1ccc(-c2cc(O)n[s+]2[O-])cc1` (stereo partly drawn) [Example 19, 5-(4-(((R)-4-(2-ethoxypyridin-3-yl)-2,3-dihydro-1H-inden-1-yl)oxy)phenyl)-3-hydroxyisothiazole 1-oxide], the EC50 was less than 300 nM.

As to `CCc1ccc(-c2cccc3c2CC[C@H]3Oc2ccc(-c3cc(O)n[s+]3[O-])cc2)cc1` (stereo partly drawn) [Example 20, 5-(4-(((R)-4-(4-ethylphenyl)-2,3-dihydro-1H-inden-1-yl)oxy)phenyl)-3-hydroxyisothiazole 1-oxide], the half-maximal effective concentration (EC50) was in the range of 300 to 3000 nM.

Turning to `[O-][s+]1nc(O)cc1-c1ccc(O[C@@H]2CCc3c(-c4ccc(F)cc4)cccc32)cc1` (stereo partly drawn) [Example 21, 5-(4-(((R)-4-(4-fluorophenyl)-2,3-dihydro-1H-inden-1-yl)oxy)phenyl)-3-hydroxyisothiazole 1-oxide], the EC50 was less than 300 nM.

As to `CCCc1ccc(-c2cccc3c2CC[C@H]3Oc2ccc(-c3cc(O)n[s+]3[O-])cc2)cc1` (stereo partly drawn) [Example 22, 5-(4-(((R)-4-(4-n-propylphenyl)-2,3-dihydro-1H-inden-1-yl)oxy)phenyl)-3-hydroxyisothiazole 1-oxide], the 50% effective concentration (EC50) was less than 300 nM.

Turning to `COc1ccc(-c2cccc3c2CC[C@H]3Oc2ccc(-c3cc(O)n[s+]3[O-])cc2)cc1` (stereo partly drawn) [Example 23, 5-(4-(((R)-4-(4-methoxyphenyl)-2,3-dihydro-1H-inden-1-yl)oxy)phenyl)-3-hydroxyisothiazole 1-oxide], the concentration giving a half-maximal response (EC50) was less than 300 nM.

As for `Cc1cccc(-c2cccc3c2CC[C@H]3Oc2ccc(-c3cc(O)n[s+]3[O-])cc2)c1` (stereo partly drawn) [Example 24, 5-(4-(((R)-4-(3-methylphenyl)-2,3-dihydro-1H-inden-1-yl)oxy)phenyl)-3-hydroxyisothiazole 1-oxide], the EC50 is less than 300 nM.

Take `C=Cc1ccc(-c2cccc3c2CC[C@H]3Oc2ccc(-c3cc(O)n[s+]3[O-])cc2)cc1` (stereo partly drawn) [Example 25, 5-(4-(((R)-4-(4-vinylphenyl)-2,3-dihydro-1H-inden-1-yl)oxy)phenyl)-3-hydroxyisothiazole 1-oxide]: the EC50 lay within 300 to 3000 nM.

Regarding `Cc1ccccc1-c1cccc2c1CC[C@H]2Oc1ccc(-c2cc(O)n[s+]2[O-])cc1` (stereo partly drawn) [Example 27, 5-(4-(((R)-4-(2-methylphenyl)-2,3-dihydro-1H-inden-1-yl)oxy)phenyl)-3-hydroxyisothiazole 1-oxide], the half-maximal effective concentration (EC50) was less than 300 nM.

As for `CC(C)Cc1ccc(-c2cccc3c2CC[C@H]3Oc2ccc(-c3cc(O)n[s+]3[O-])cc2)cc1` (stereo partly drawn) [Example 28, 5-(4-(((R)-4-(4-isobutylphenyl)-2,3-dihydro-1H-inden-1-yl)oxy)phenyl)-3-hydroxyisothiazole 1-oxide], the 50% effective concentration (EC50) was less than 300 nM.

For the compound `[O-][s+]1nc(O)cc1-c1ccc(O[C@@H]2CCc3c(-c4cccc(F)c4)cccc32)cc1` (stereo partly drawn) [Example 29, 5-(4-(((R)-4-(3-fluorophenyl)-2,3-dihydro-1H-inden-1-yl)oxy)phenyl)-3-hydroxyisothiazole 1-oxide], the EC50 is less than 300 nM.

For the compound `COc1cccc(-c2cccc3c2CC[C@H]3Oc2ccc(-c3cc(O)n[s+]3[O-])cc2)c1` (stereo partly drawn) [Example 30, 5-(4-(((R)-4-(3-methoxyphenyl)-2,3-dihydro-1H-inden-1-yl)oxy)phenyl)-3-hydroxyisothiazole 1-oxide], the concentration giving a half-maximal response (EC50) was less than 300 nM.

As to `CC(C)Oc1ccc(-c2cccc3c2CC[C@H]3Oc2ccc(-c3cc(O)n[s+]3[O-])cc2)cc1` (stereo partly drawn) [Example 31, 5-(4-(((R)-4-(4-isopropoxyphenyl)-2,3-dihydro-1H-inden-1-yl)oxy)phenyl)-3-hydroxyisothiazole 1-oxide], the EC50 lay in the range of 300 to 3000 nM.

On to `CCOc1cccc(-c2cccc3c2CC[C@H]3Oc2ccc(-c3cc(O)n[s+]3[O-])cc2)c1` (stereo partly drawn) [Example 32, 5-(4-(((R)-4-(3-ethoxyphenyl)-2,3-dihydro-1H-inden-1-yl)oxy)phenyl)-3-hydroxyisothiazole 1-oxide], for which the half-maximal effective concentration (EC50) is 300 to 3000 nM.

As to `CC(C)(C)c1ccc(-c2cccc3c2CC[C@H]3Oc2ccc(-c3cc(O)n[s+]3[O-])cc2)cc1` (stereo partly drawn) [Example 33, 5-(4-(((R)-4-(4-tert-butylphenyl)-2,3-dihydro-1H-inden-1-yl)oxy)phenyl)-3-hydroxyisothiazole 1-oxide], the EC50 is 300 to 3000 nM.

`CC(C)c1ccccc1-c1cccc2c1CC[C@H]2Oc1ccc(-c2cc(O)n[s+]2[O-])cc1` (stereo partly drawn) [Example 34, 5-(4-(((R)-4-(2-isopropylphenyl)-2,3-dihydro-1H-inden-1-yl)oxy)phenyl)-3-hydroxyisothiazole 1-oxide]: the concentration for a half-maximal effect (EC50) lay within 300 to 3000 nM.

`Cc1ccc(-c2cccc3c2CC[C@H]3Oc2ccc(-c3cc(O)n[s+]3[O-])cc2)c(C)c1` (stereo partly drawn) [Example 36, 5-(4-(((R)-4-(2,4-dimethylphenyl)-2,3-dihydro-1H-inden-1-yl)oxy)phenyl)-3-hydroxyisothiazole 1-oxide]: the EC50 was less than 300 nM.

As for `Cc1ccc(C)c(-c2cccc3c2CC[C@H]3Oc2ccc(-c3cc(O)n[s+]3[O-])cc2)c1` (stereo partly drawn) [Example 37, 5-(4-(((R)-4-(2,5-dimethylphenyl)-2,3-dihydro-1H-inden-1-yl)oxy)phenyl)-3-hydroxyisothiazole 1-oxide], the concentration for a half-maximal effect (EC50) is less than 300 nM.

On to `Cc1cc(-c2cccc3c2CC[C@H]3Oc2ccc(-c3cc(O)n[s+]3[O-])cc2)ccc1F` (stereo partly drawn) [Example 38, 5-(4-(((R)-4-(4-fluoro-3-methylphenyl)-2,3-dihydro-1H-inden-1-yl)oxy)phenyl)-3-hydroxyisothiazole 1-oxide], for which the 50% effective concentration (EC50) is less than 300 nM.

Consider `Cc1cc(F)ccc1-c1cccc2c1CC[C@H]2Oc1ccc(-c2cc(O)n[s+]2[O-])cc1` (stereo partly drawn) [Example 39, 5-(4-(((R)-4-(4-fluoro-2-methylphenyl)-2,3-dihydro-1H-inden-1-yl)oxy)phenyl)-3-hydroxyisothiazole 1-oxide], for which the EC50 was less than 300 nM.

Take `COc1ccc(-c2cccc3c2CC[C@H]3Oc2ccc(-c3cc(O)n[s+]3[O-])cc2)c(C)c1` (stereo partly drawn) [Example 40, 5-(4-(((R)-4-(4-methoxy-2-methylphenyl)-2,3-dihydro-1H-inden-1-yl)oxy)phenyl)-3-hydroxyisothiazole 1-oxide]: the EC50 is less than 300 nM.

Take `Cc1ccc(F)cc1-c1cccc2c1CC[C@H]2Oc1ccc(-c2cc(O)n[s+]2[O-])cc1` (stereo partly drawn) [Example 41, 5-(4-(((R)-4-(5-fluoro-2-methylphenyl)-2,3-dihydro-1H-inden-1-yl)oxy)phenyl)-3-hydroxyisothiazole 1-oxide]: the half-maximal effective concentration (EC50) was less than 300 nM.

Take `[O-][s+]1nc(O)cc1-c1ccc(O[C@@H]2CCc3c(-c4ccccc4OCc4ccccc4)cccc32)cc1` (stereo partly drawn) [Example 42, 5-(4-(((R)-4-(2-benzyloxyphenyl)-2,3-dihydro-1H-inden-1-yl)oxy)phenyl)-3-hydroxyisothiazole 1-oxide]: the 50% effective concentration (EC50) was less than 300 nM.

With `Cc1ccc(-c2cccc3c2CC[C@H]3Oc2ccc(-c3cc(O)n[s+]3[O-])cc2)c(Cl)c1` (stereo partly drawn) [Example 43, 5-(4-(((R)-4-(2-chloro-4-methylphenyl)-2,3-dihydro-1H-inden-1-yl)oxy)phenyl)-3-hydroxyisothiazole 1-oxide], the concentration for a half-maximal effect (EC50) is less than 300 nM.

As to `CCOc1ccc(-c2cccc3c2CC[C@H]3Oc2ccc(-c3cc(O)n[s+]3[O-])cc2)cc1F` (stereo partly drawn) [Example 44, 5-(4-(((R)-4-(4-ethoxy-3-fluorophenyl)-2,3-dihydro-1H-inden-1-yl)oxy)phenyl)-3-hydroxyisothiazole 1-oxide], the EC50 was 300 to 3000 nM.

Take `COc1ccc(C)cc1-c1cccc2c1CC[C@H]2Oc1ccc(-c2cc(O)n[s+]2[O-])cc1` (stereo partly drawn) [Example 45, 5-(4-(((R)-4-(2-methoxy-5-methylphenyl)-2,3-dihydro-1H-inden-1-yl)oxy)phenyl)-3-hydroxyisothiazole 1-oxide]: the EC50 was less than 300 nM.

In the case of `[O-][s+]1nc(O)cc1-c1ccc(O[C@@H]2CCc3c(-c4cc(F)ccc4F)cccc32)cc1` (stereo partly drawn) [Example 46, 5-(4-(((R)-4-(2,5-difluorophenyl)-2,3-dihydro-1H-inden-1-yl)oxy)phenyl)-3-hydroxyisothiazole 1-oxide], the 50% effective concentration (EC50) is less than 300 nM.
